Measurements taken from article PMC11541514, “Structural and Solution Speciation Studies on fac-Tricarbonylrhenium(I) Complexes of 2,2′-Bipyridine Analogues” (ACS Omega, 2024).

Key:
[1] = tested on: Colo320/MDR-LRP resistant human colonic adenocarcinoma cell line; assay: MTT cytotoxicity assay on Colo320 cells; format: cell-based; conditions: for IC50: MTT, incubation time 72 h
Experimental: (§1) The cytotoxic activity of selected halido (1–4Cl, and 3Br with chlorido and bromido coligand, respectively) and aqua (1–4Aq) complexes was evaluated in the drug-sensitive Colo205 and its resistant counterpart Colo320 human colonic adenocarcinoma cell lines using the colorimetric 3-(4,5-dimethylthiazol-2-yl)-2,5-diphenyl-tetrazolium bromide (MTT) assay. For comparison, fac-[Re(CO)3(bpy)(Cl)] (in which bpy denotes 2,2′-bipyridine) was also tested, and doxorubicin was used as a positive control. […] The aqua complexes (1–4Aq) were characterized by even higher IC50 values (>100 μM). The somewhat higher cytotoxic activity of the halido complexes might be the result of their kinetic inertness compared to aqua derivatives, based on the previous solution chemical studies.
Doxorubicin-sensitive Colo205 (ATCC-CCL-222) and ABCB1 (MDR1)-LRP-expressing resistant Colo320/MDR-LRP (ATCC-CCL-220.1) human colonic adenocarcinoma cell lines were purchased from LGC Promochem (Teddington, UK). The cells were cultured in RPMI 1640 medium supplemented with 10% heat-inactivated fetal bovine serum, 2 mM L-glutamine, 1 mM Na-pyruvate, and 10 mM 4-(2-hydroxyethyl)-1-piperazineethanesulfonic acid (HEPES, Sigma, Steinheim, Germany). Cell lines were incubated at 37 °C in a 5% CO2, 95% air atmosphere. The semiadherent human colon cancer cells were detached with Trypsin-Versene (EDTA, Sigma, Steinheim, Germany) solution for 5 min at 37 °C.
(§2) The tested compounds were dissolved in DMSO or 20% (v/v) DMSO/H2O mixture to prepare 5 mM stock solutions, which were diluted in complete culture medium, to study the effect of compounds on the cell growth of human colonic adenocarcinoma cell lines (doxorubicin-sensitive Colo205 and resistant Colo320 colonic adenocarcinoma cells). Doxorubicin (Merck, Darmstadt, Germany) was used as a positive control. The cells were treated with Trypsin-Versene (EDTA) solution. […] Cell growth was determined by measuring the optical density (OD) at 540/630 nm with a Multiscan EX ELISA reader (Thermo Labsystems, Cheshire, WA, USA). […]

[2] = tested on: Colo205 human colonic adenocarcinoma cell line (doxorubicin-sensitive); assay: MTT cytotoxicity assay on Colo205 cells; format: cell-based
Experimental: as §1, with “studies. […]” for “studies.”
as §2, with “cells).” for “cells). Doxorubicin (Merck, Darmstadt, Germany) was used as a positive control. The cells were treated with Trypsin-Versene (EDTA) solution.”

[3] = tested on: Vero cells; assay: MTT assay on Vero cells, maximum non-toxic concentration; format: cell-based, African green monkey; conditions: incubation 24 h
Experimental: Selected compounds (1–4Aq, 1–4Cl, and 3Br) and the reference complex fac-[Re(CO)3(bpy)(Cl)] were tested for their antiviral activity against Herpes simplex virus 2 (HSV-2), which is a double-stranded DNA virus that infects mammals, including humans.[29] The antiviral activity of complexes against HSV-2 was investigated by using Vero cells (originally isolated from kidney epithelial cells of an African green monkey) to host the growing viruses.
Vero cells (ATCC) were placed into the 96-well plate (Sarstedt, Nümbrecht, Germany) at a density of 4 × 10^6 cells/plate. The cells at a density of 4 × 10^4 cells per well were in 100 μL of minimal essential medium (MEM) (Sigma; USA) with Earle salts supplemented with 25 μg/mL gentamicin, 10% heat-inactivated fetal bovine serum (FBS) (Gibco; Germany), 8 mM HEPES, 2 mM L-glutamine, 1× nonessential amino acids, and 1 μg/mL fungisone. The cells were incubated for 60 min at room temperature (RT) to avoid the edge effect and then for 24 h at 37 °C, 5% CO2 that secure a 90% confluent cell layer.[44]
MTT assay was used to determine the maximum non-toxic concentration of the complexes on Vero cells. […] Next day the absorbance of the wells was determined by a microtiter plate reader (Labsystems Multiskan Ex 355, Thermo Fisher Scientific, Waltham, MA USA). The absorbance of the formazan product was measured at 540 nm.[45]

**Q.** What does the source list for COc1cccc2c1C(=O)c1c(O)c3c(c(O)c1C2=O)C[C@@](O)(C(=O)CO)C[C@@H]3O[C@H]1C[C@H](N)[C@H](O)[C@H](C)O1 [doxorubicin, reference compound]?
**A.** IC50 ([1]; Homo sapiens, COLO 320): 3.13 ± 0.29 µM; IC50 ([2]; Homo sapiens, COLO 205, incubation time 72 h): 0.58 ± 0.06 µM

**Q.** Which “RF (resistance factor = IC50(Colo320)/IC50(Colo205))” value ([1]; 72 h) does the source give for [C-]#[O+].[C-]#[O+].[C-]#[O+].[Cl][Re-2]1[n+]2ccccc2-c2cccc[n+]21 [fac-[Re(CO)3(bpy)(Cl)], reference compound] here?
**A.** 1.95

**Q.** And the IC50 [1]?
**A.** 49.1 ± 1.7 µM

**Q.** What about the maximum nontoxic concentration [3] of the same molecule?
**A.** 25 µM

**Q.** What about the IC50 ([2]; incubation time 72 h) of the same molecule?
**A.** 25.2 ± 1.1 µM
